# Tests used:
# aortic rings = assay: β-amyloid augmentation of phenylephrine (PE) induced contraction of aortic rings; parameters: species or system rat; conditions: for effect on β-amyloid induced enhancement of PE mediated contraction: β-amyloid 5×10^-7 M, PE 4×10^-8 M, L-NMMA 10^-4 M, indomethacin 10^-5 M, SQ 29548 10^-5 M, catalase 1000 units/ml
# Protocol: (§1) The blood vessel preparations were mounted on stainless steel hooks attached to a force-displacement transducer and equilibrated under the optimum tension of 1.3 g for a period of sixty minutes in a tissue bath (10 ml) containing oxygenated (5% CO2 in O2) Kreb's buffer at 37° C. The buffer was changed every fifteen minutes. After equilibration for sixty minutes the viability of the blood vessel with intact endothelium was established by constricting the blood vessel using phenylephrine ([…]). This dose of phenylephrine elicited 80% of the maximum response. […] The vessel preparations were washed for fifteen minutes before various manipulations as described below.
# The procedure was then repeated following incubation of the tissue with 10^-6 M β-amyloid for fifteen minutes (P1). The tissue was then rinsed and contractions repeated twice following fifteen minute incubation (P2 & P3) without further addition of β-amyloid. Arrows are shown for points of addition for P3.
# Following a fifteen minute incubation, the preparations were contracted with 10^-7 M phenylephrine (PE) as described earlier. Control contractions with PE alone were carried out in presence of the various test compounds. Values represent the mean±SEM of four or more experiments. The heat-inactivated SOD was prepared by placing it in boiling water for thirty minutes followed by cooling prior to use. The hydrogen peroxide-inactivated SOD was prepared by exposing SOD to 10 mM H2 O2 for thirty minutes at pH 8.5 and subsequent separation using Microcon filtration system. The amyloid induced PE contraction was blocked by active SOD. Neither albumin or inactivated SOD had any effect on the amyloid activity.
# The effect of preincubation of blood vessel with 10^-6 M β-amyloidon contraction induced by phenylephrine (2, 4, 8, & 16×10^-8 M is shown in Table 1). The maximum contraction in the absence of β-amyloid is taken as 100% and the values obtained following exposure to β-amyloid are expressed as percent of control value. After washing out phenylephrine and acetylcholine of the control contraction, β-amyloid augmented the phenylephrine induced contractions (P1). This effect was blocked by SOD. Washing out the phenylephrine and acetylcholine of the post peptide contraction and repeating the contractions caused further enhancement (P2). Values represent the mean±SEM of nine or more experiments.
# The tissue was then incubated for fifteen minutes with β-amyloid (5×10^-7 M) with or without the drug, followed by contractions with PE. The concentrations compounds used were: L-NMMA, an inhibitor of NO synthase (10^-4 M); indomethacin, an inhibitor of the cyclooxygenase pathway (10^-5 M); SQ 29548, a thromboxane A2 receptor antagonist (10^-5 M); and catalase (1000 units/ml). Values are represented as percentage of the maximal contraction obtained with β-amyloid and PE alone and standardized to remove the intrinsic effects (if any) of each drug on PE contraction alone. The results represent the mean±SEM of five or more experiments.
# rat coronary arteries = assay: Rat coronary artery constriction and relaxation (U46619, acetylcholine); conditions: for constriction of rat coronary artery by the peptide: 10^-6 M peptide
# Protocol: The effects of β-amyloid peptide were examined on samples of rat coronary arteries prepared as described above. Referring specifically to FIG. 1, rat coronary arteries were treated with β-amyloid peptide (Aβ40) causing constriction of the coronary arteries.
# FIG. 3 illustrates the effect of various amyloid fragments on the constriction of rat coronary arteries. Following control constriction with 10^-7 M U46619, the tissue samples were rinsed, equilibrated with buffer, and treated with 10^-6 M Aβ peptides for fifteen minutes. Following treatment with the Aβ peptides, the blood vessels were rinsed and again exposed to U46619. The values are expressed as percent of control constriction produced by U46619 alone.
# The effect of pretreatment of coronary arteries with a single dose (10^-6 M) of A40 on acetylcholine induced relaxation is shown in FIG. 20. The blood vessel was preconstricted with 10^-7 M U46619 and relaxed with increasing doses of acetylcholine (10^-9 M to 10^-5 M).
# rat aorta = assay: Enhancement of endothelin-1 (ET-1) induced vasoconstriction of rat aorta; conditions: for enhancement of ET-1 contraction: peptide 1 μM (Aβ25-35 1 μM and 5 μM) ten minutes prior to first ET-1 dose
# Protocol: Normal Sprague-Dawley rats were sacrificed by decapitation, and freshly dissected rat aorta was segmented into rings and suspended in Ringers buffer using a tensiometer linked to the MacLab system. Following a two hour equilibration period, the "pretreatment" contraction was carried out. The aortic rings were contracted using a range of doses of endothelin-1 and relaxed using a single odes of acetylcholing (Ach(10^-7 M)). […] The dose of each Aβ peptide was 1 μM, with the exception of Aβ25-35 (1 μM and 5 μM), and was added ten minutes prior to the first ET-1 dose. For SOD treatment we added 150 U/ml 30 seconds before the addition of Aβ.
# Endothelium was removed by gently passing a glass pipette, dipped in saline solution, through the lumen of the aortae several time, allowing the pipette to gently brush the endothelial surface. Endothelium was removed from the aortae prior to hanging in the tissue bath system. Both pre-and post treatment contractions involved a single does of ET-1 (5×10^-9 M).
# In all cases the mean difference in percentage contraction in the pre- and post-contractions (before and after addition of test compound respectively) was measured, and compared between the two. Endogenous production of ET-1 was measured using an ET-1 RIA kit (Peninsula Laboratories).
# blood vessel (rat aorta) = assay: Vascular response of blood vessel rings in tissue bath (basal tension, β-amyloid induced vasoactivity)
# Protocol: Freshly excised rat and porcine blood vessels were placed in Kreb's bicarbonate buffer equilibrated with 5% CO2 in O2. The buffer composition consisted of 118.2 mM NaCl, 4.7 mM KCl, 1.2 mM MgSO4, 2.5 mM CaCl2, 1.2 mM NaH2 PO4, 23 mM NaHCO3 and 11.2 mM glucose. After cleaning the vessels free of fat and other adhering tissues, the vessels were cut into ring segments of approximately 3 mm in length. Care was taken not to damage the intimal surface.
# The endothelium was removed from some preparations by rubbing the inside of the lumen with a metal spatula for six to ten seconds and subsequent rinsing with buffer. The removal of endothelium was confirmed by testing for relaxation to acetylcholine [Furchgott and Zawadzki, 1980].
# as §1
# Referring to FIG. 10, the arrow indicates the addition of 10^-6 M β-amyloid. The control tissue received no β-amyloid. SOD (150 units/ml) was added thirty seconds prior to the addition of β-amyloid. The maximum contraction induced by β-amyloid was 1.14±0.13 (g) and in presence of SOD the contraction was reduced to 0.04±0.02 (g). Values represent the mean±SEM of five separate experiments.
# [1] = tested on: human aortic endothelial cel line (HAEC); assay: Aβ toxicity on HAEC and its prevention (trypan blue exclusion, HE stain); conditions: pimozide 10 μM, three hours post treatment
# Protocol: (§2) All these cells were maintained at 37° C., under an atmosphere containing 5% CO2. For the present experiments, HAEC and BE(2)-M17 were seeded at densities of 2×10^4 cells per well in 24-23ll clusters.
# (§3) The experiments were terminated one half, one, two and three hours post treatment by detachment with Trypsin/EDTA solution and followed by a toxicity assay with trypan blue exclusion. In parallel experiments, cells were attached to a round Thermanox (Nunc) at the bottom of the well, and were stopped three to 24 hours post treatment by fixation with 4% neutral formalin solution which was followed by Hematoxylin-Eosin stain to show morphology.
# (§4) Morphological changes in cells were monitored throughout the course of the experiment with an inverse phase-contrast microscope. After termination of the experiments, the cells fixed on the Thermanox were subjected to routine Hematoxylin-Eosin (HE) stain. The morphological characteristics of toxic cells were observed under light microscope and typical results were recorded by photographs.
# (§5) For approximate quantification of Aβ toxicity of HAEC, modified procedure for trypan blue exclusion was employed. In brief, the detached cells were resuspended with an appropriate volume of culture media, 20 μl of this cell suspension was mixed with an equivalent volume of 4% Trypan-blue solution thoroughly, and allowed to sit for two minutes after mixing. Approximately 9 μl of the mixture was transferred to a hemocytometer for cell counting. The cell viability was determined by the equation: [formula] In the case of severe toxicity, where some of the cells were lysed, the total cell numbers were adjusted by that of controls. In this experiment, counts for each sample were triplicated.
# [2] = tested on: human neuroblastoma cell line (BE(2)-M17); assay: Aβ toxicity on BE(2)-M17 (trypan blue exclusion); format: cell-based; conditions: same concentrations as HAEC cultures, up to day eight; data not shown
# Description: Trypan blue exclusion was used for the cell viability assay.
# [3] = tested on: human aortic endothelial cel line (HAEC)
# Protocol: as §2, §3, §4, §5
compound,measurement,setting,value
CNC(=N)NCCC[C@H](N)C(=O)O [L-NMMA],effect on β-amyloid induced enhancement of PE mediated contraction,aortic rings,None of the compounds exerted any significant effect
O=C(O)CCC/C=C\C[C@@H]1[C@H](CNNC(=O)Nc2ccccc2)[C@H]2CC[C@@H]1O2 [SQ 29548],effect on β-amyloid induced enhancement of PE mediated contraction,aortic rings,None of the compounds exerted any significant effect
CCCCC[C@H](O)/C=C/[C@@H]1[C@@H](C/C=C\CCCC(=O)O)[C@H]2CO[C@@H]1C2 [U46619],constriction of rat coronary artery by vasoconstrictor,rat coronary arteries; 10^-7 M,caused constriction of the blood vessel
Oc1ncnc2[nH]ncc12 [allopurinol],effect of allopurinol on Aβ enhancement,rat aorta,No effect on Aβ enhancement
COc1ccc2c(c1)c(CC(=O)O)c(C)n2C(=O)c1ccc(Cl)cc1 [indomethacin],effect on β-amyloid induced enhancement of PE mediated contraction,aortic rings,None of the compounds exerted any significant effect
CNC[C@H](O)c1cccc(O)c1 [phenylephrine],Emax at 1000 µM,"blood vessel (rat aorta); Rattus norvegicus, phenylephrine (1 mM), viability test of vessel, read-out: response elicited, of the maximum response",80%
same,constriction of blood vessel,blood vessel (rat aorta); with or without endothelium,constricted in response to phenylephrine with or without endothelium
O=c1[nH]c2ccccc2n1C1CCN(CCCC(c2ccc(F)cc2)c2ccc(F)cc2)CC1 [pimozide],own toxicity of the blocker on HAEC,[1],seems to be toxic itself
COc1ccc(CCN(C)CCCC(C#N)(c2ccc(OC)c(OC)c2)C(C)C)cc1OC (stereo not shown) [verapamil],ET-1 contraction with the compound alone,rat aorta; verapamil 50 μM,caused enhancement of contraction
same,effect on Aβ enhancement of ET-1 contraction,"rat aorta; verapamil 50 μM two minutes before Aβ, endothelium present",had no effect on Aβ enhancement
Aβ1-28: β-amyloid peptide fragment 1-28,constriction of rat coronary artery by the peptide,rat coronary arteries,induce constriction of the coronary artery
Aβ1-42: β-amyloid peptide with forty-two amino acids; supplied by RBI and/or MD Enterprise,toxic effect on differentiated BE(2)-M17 cells,[2],not toxic effect was noticed
same,enhancement of vasoconstriction compared with Aβ1-40,rat aorta,decreased enhancement of vasoconstriction
same,enhancement of ET-1 contraction,rat aorta,also enhanced the ET-1 contraction
same,cell morphology by HE staining,[3],"highly vacuolized cytoplasm, blebbing cell membranes and swelling cell bodies"
same,cell viability one half hour post treatment,[3],significant reduction of cell viability
same,time and dose dependence of toxic effects on HAEC,[3],time-and dose-dependent manner
"Aβ25-35: fragment of Aβ, widely regarded to be the neurotoxic fragment (GSNKGAIIGLM; Amyloid-beta protein 42; UniProt P05067 696-706, looked up, fragment)",constriction of rat coronary artery by the peptide,rat coronary arteries,induce constriction of the coronary artery
same,toxic effect on differentiated BE(2)-M17 cells,[2],not toxic effect was noticed
same,enhancement of ET-1 contraction,rat aorta,unable to enhance contraction even at five times the concentration of Aβ1-40
same,cell morphology by HE staining,[3],"highly vacuolized cytoplasm, blebbing cell membranes and swelling cell bodies"
same,cell viability one half hour post treatment,[3],significant reduction of cell viability
same,time and dose dependence of toxic effects on HAEC,[3],time-and dose-dependent manner
albumin,protection against β-amyloid enhancement of PE induced contraction,"aortic rings; preincubation before 10^-6 M β-amyloid, 10^-7 M PE",did not protect
catalase,effect on β-amyloid induced enhancement of PE mediated contraction,aortic rings,None of the compounds exerted any significant effect

# Source: patent US6011019A, “Vasoactive effects and free radical generation by β-amyloid peptides” (University of South Florida, priority 1996, dated 2000)
